Source: article PMC7725003, “Systematically Studying the Optimal Amino Acid Distribution Patterns of the Amphiphilic Structure by Using the Ultrashort Amphiphiles” (Frontiers in Microbiology, 2020)
Where no end group is shown, it is not given here.

Experiments:
E. coli 25922 = assay type: cell-based, Escherichia coli; settings: 25922, 24 h
Summary of the method: (§1)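 Modified NCCLS broth microdilution: mid-log bacteria diluted in MHB to 0.5–1 × 10^6 CFU mL^–1, mixed with peptides serially diluted in 0.2% BSA, incubated 24 h at 37°C. MIC taken as lowest concentration inhibiting 95% of growth by absorbance at 492 nm.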

E. coli O78 = assay type: cell-based, Escherichia coli; settings: O78, 24 h
Summary of the method: as §1

E. coli UB1005 = assay type: cell-based, Escherichia coli; settings: UB1005, 24 h
Summary of the method: as §1

S. typhimurium 14028 = assay type: cell-based, Salmonella typhimurium; settings: 14028, 24 h
Summary of the method: as §1

S. typhimurium 7731 = assay type: cell-based, Salmonella typhimurium; settings: 7731, 24 h
Summary of the method: as §1

S. pullorum 7913 = assay type: cell-based, Salmonella pullorum; settings: 7913, 24 h
Summary of the method: as §1

P. aeruginosa 27853 = assay type: cell-based, Pseudomonas aeruginosa; settings: 27853, 24 h
Summary of the method: as §1

Gram-negative bacteria = settings: for GM, Gram-negative bacteria: geometric mean of MICs (Table 3); for TI, Gram-negative bacteria: therapeutic index TI = MHC/GM MIC
Summary of the method: (§2)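 MIC is the lowest peptide concentration giving 95% growth inhibition, read at 492 nm after 24 h incubation at 37°C. Peptides were serially diluted in 0.2% BSA and added to mid-logarithmic cells at 0.5–1 × 10^6 CFU mL^–1 in MHB, following a modified NCCLS method, with more than 3 repeats.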

Gram-positive bacteria = settings: for GM, Gram-positive bacteria: geometric mean of MICs (Table 3); for TI, Gram-positive bacteria: therapeutic index TI = MHC/GM MIC
Summary of the method: as §2

S. aureus 25923 = assay type: cell-based, Staphylococcus aureus; settings: 25923, 24 h
Summary of the method: as §1

S. aureus 29213 [1] = assay type: cell-based, Staphylococcus aureus; settings: 29213, 24 h
Summary of the method: as §1

S. epidermidis 12228 = assay type: cell-based, Staphylococcus epidermidis; settings: 12228, 24 h
Summary of the method: as §1

MRSA 43300 = assay type: cell-based, methicillin-resistant S. aureus; settings: 43300, 24 h
Summary of the method: as §1

B. subtilis 63501 = assay type: cell-based, Bacillus subtilis; settings: 63501, 24 h
Summary of the method: as §1

E. faecalis 29212 = assay type: cell-based, Enterococcus faecalis; settings: 29212, 24 h
Summary of the method: as §1

[2] = tested on: Listeria monocytogenes CGMCC 1.1075; assay type: cell-based; settings: CGMCC 1.1075, 24 h
Summary of the method: as §1

[3] = tested on: all of the tested bacterial strains; test: Geometric mean of MICs, all tested bacterial strains; assay type: cell-based; settings: for GM, All: geometric mean of MICs across all tested strains; for TI, All: therapeutic index TI = MHC/GM MIC
Summary of the method: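 Per strain, MIC came from absorbance at 492 nm after 24 h at 37°C (≥95% inhibition), using mid-log inoculum of 0.5–1 × 10^6 CFU mL^–1 in MHB and peptide diluted in 0.2% BSA. MBC (>99.9% killed) came from overnight agar plating, and values are geometric means across strains.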

E. coli ATCC 25922 = test: Salt sensitivity assay (MIC); assay type: cell-based, Escherichia coli; settings: for MIC, FeCl3: 4 μM FeCl3; for MIC, NH4Cl: 6 μM NH4Cl; for MIC, ZnCl2: 8 μM ZnCl2; for MIC, MgCl2: 1 mM MgCl2; for MIC, CaCl2: 2 mM CaCl2; for MIC, KCl: 4.5 mM KCl; for MIC, NaCl: 150 mM NaCl; for MIC, Control: no added salt, three independent assays
Summary of the method: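 Peptides diluted serially in 0.2% BSA solution were combined at identical volumes with mid-logarithmic E. coli ATCC 25922 in MHB (0.5–1 × 10^6 CFU mL^–1) in 96-well plates, with or without a physiological salt. Plates were incubated for 24 h at 37°C. MIC was the lowest concentration inhibiting 95% of growth, measured as absorbance at 492 nm on a microplate reader.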

S. aureus 29213 [4] = test: Salt sensitivity assay (MIC); assay type: cell-based, Staphylococcus aureus; settings: for MIC, FeCl3: 4 μM FeCl3; for MIC, NH4Cl: 6 μM NH4Cl; for MIC, ZnCl2: 8 μM ZnCl2; for MIC, MgCl2: 1 mM MgCl2; for MIC, CaCl2: 2 mM CaCl2; for MIC, KCl: 4.5 mM KCl; for MIC, NaCl: 150 mM NaCl; for MIC, Control: no added salt, three independent assays
Summary of the method: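 Physiological salts (150 mM NaCl, 4.5 mM KCl, 6 μM NH4Cl, 8 μM ZnCl2, 1 mM MgCl2, 2mM CaCl2, 4 μM FeCl3) added to MHB. Bacteria at 0.5–1 × 10^6 CFU/mL exposed to serially diluted peptides for 24 h at 37°C. MIC read as lowest peptide concentration giving 95% growth inhibition by absorbance at 492 nm.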

WWRWWRRRW-NH2 [W1]
2 µM: MIC (S. aureus 25923) | MIC (S. aureus 29213 [1]) | MIC (S. epidermidis 12228) | MIC (MRSA 43300) | MBC (B. subtilis 63501) | MIC, FeCl3 (E. coli ATCC 25922) | MIC, ZnCl2 (E. coli ATCC 25922) | MIC, MgCl2 (E. coli ATCC 25922) | MIC, CaCl2 (E. coli ATCC 25922) | MIC, FeCl3 (S. aureus 29213 [4]) | MIC, NH4Cl (S. aureus 29213 [4]) | MIC, ZnCl2 (S. aureus 29213 [4]) | MIC, MgCl2 (S. aureus 29213 [4]) | MIC, CaCl2 (S. aureus 29213 [4]) | MIC, KCl (S. aureus 29213 [4]) | MIC, Control (S. aureus 29213 [4])
3.51 µM: GM, All [3]
8 µM: MBC (E. coli 25922) | MBC (E. coli O78) | MBC (E. coli UB1005) | MBC (S. typhimurium 14028) | MBC (S. typhimurium 7731) | MBC (S. pullorum 7913) | MIC (P. aeruginosa 27853) | MBC (E. faecalis 29212) | MIC [2] | MIC, NaCl (E. coli ATCC 25922)
26.23: TI, Gram-positive bacteria (Gram-positive bacteria)
18.23: TI, All [3]
2.44 µM: GM, Gram-positive bacteria (Gram-positive bacteria)
16 µM: MBC (P. aeruginosa 27853) | MBC [2]
4 µM: MIC (E. coli 25922) | MIC (E. coli O78) | MIC (E. coli UB1005) | MIC (S. typhimurium 14028) | MIC (S. typhimurium 7731) | MIC (S. pullorum 7913) | MBC (S. aureus 25923) | MBC (S. aureus 29213 [1]) | MBC (S. epidermidis 12228) | MBC (MRSA 43300) | MIC (E. faecalis 29212) | MIC, NH4Cl (E. coli ATCC 25922) | MIC, KCl (E. coli ATCC 25922) | MIC, Control (E. coli ATCC 25922) | MIC, NaCl (S. aureus 29213 [4])
4.67 µM: GM, Gram-negative bacteria (Gram-negative bacteria)
1 µM: MIC (B. subtilis 63501)
13.70: TI, Gram-negative bacteria (Gram-negative bacteria)

WRRRRWWWW-NH2 [W11]
3.83 µM: GM, All [3]
16 µM: MBC (E. coli O78) | MBC (S. typhimurium 14028) | MBC (S. typhimurium 7731) | MBC (P. aeruginosa 27853) | MIC, CaCl2 (E. coli ATCC 25922)
4 µM: MIC (E. coli 25922) | MIC (E. coli UB1005) | MIC (S. pullorum 7913) | MBC (S. aureus 25923) | MBC (S. aureus 29213 [1]) | MBC (S. epidermidis 12228) | MBC (MRSA 43300) | MIC (E. faecalis 29212) | MIC [2] | MIC, FeCl3 (E. coli ATCC 25922) | MIC, Control (E. coli ATCC 25922)
5.88 µM: GM, Gram-negative bacteria (Gram-negative bacteria)
2.21 µM: GM, Gram-positive bacteria (Gram-positive bacteria)
2 µM: MIC (S. aureus 25923) | MIC (S. aureus 29213 [1]) | MIC (S. epidermidis 12228) | MIC (MRSA 43300) | MBC (B. subtilis 63501) | MIC, NH4Cl (E. coli ATCC 25922) | MIC, ZnCl2 (E. coli ATCC 25922) | MIC, FeCl3 (S. aureus 29213 [4]) | MIC, ZnCl2 (S. aureus 29213 [4]) | MIC, MgCl2 (S. aureus 29213 [4]) | MIC, CaCl2 (S. aureus 29213 [4]) | MIC, NaCl (S. aureus 29213 [4]) | MIC, Control (S. aureus 29213 [4])
43.54: TI, Gram-negative bacteria (Gram-negative bacteria)
8 µM: MBC (E. coli 25922) | MIC (E. coli O78) | MBC (E. coli UB1005) | MIC (S. typhimurium 14028) | MIC (S. typhimurium 7731) | MBC (S. pullorum 7913) | MIC (P. aeruginosa 27853) | MBC (E. faecalis 29212) | MBC [2] | MIC, MgCl2 (E. coli ATCC 25922) | MIC, KCl (E. coli ATCC 25922) | MIC, NaCl (E. coli ATCC 25922)
66.84: TI, All [3]
115.84: TI, Gram-positive bacteria (Gram-positive bacteria)
1 µM: MIC (B. subtilis 63501) | MIC, NH4Cl (S. aureus 29213 [4]) | MIC, KCl (S. aureus 29213 [4])
